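Assay format: 96-well plates, 48-hour exposure. Abbreviation: GI50, concentration required for 50% inhibition of growth.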 Active and inactive are the calls of the source. Cut-off read from the data, not from the text of the source: active = GI50 up to about 1.1 µM and inactive = higher.
Legend:
Experiment in all cases: DTP human tumour cell line panel, 48 h
[1] = tested on: CAKI-1
[2] = tested on: HCT-116
[3] = tested on: HOP-62
[4] = tested on: LOX IMVI
[5] = tested on: M14
[6] = tested on: NCI-H460
[7] = tested on: OVCAR-8
[8] = tested on: RPMI-8226
[9] = tested on: RXF 393
[10] = tested on: SF-268
[11] = tested on: SF-295
[12] = tested on: SK-MEL-28
[13] = tested on: SK-MEL-5
[14] = tested on: SN12C
[15] = tested on: SNB-19
[16] = tested on: SW-620
[17] = tested on: U-251
[18] = tested on: UO-31
[19] = tested on: HT-29
[20] = tested on: NCI-H23

Measured: GI50

O=[N+]([O-])c1ccc(C2=Nc3ccccc3SC(c3ccccc3)C2)cc1 (configuration not stated)
inactive: [1] 17.6 µM | [2] 11.9 µM | [3] 20.7 µM | [4] 13.7 µM | [5] 19.4 µM | [6] 20.6 µM | [7] 20.8 µM | [8] 14.8 µM | [9] 24.6 µM | [10] 24.7 µM | [11] 20.2 µM | [12] 21.3 µM | [13] 18.1 µM | [14] 17 µM | [15] 17 µM | [16] 14.5 µM | [17] 13.1 µM | [18] 12.9 µM

COc1ccc(N[S+]([O-])c2ccc(-c3ccccc3)cc2)cc1 (configuration not stated)
inactive: [1] > 100 µM | [2] > 100 µM | [3] 52 µM | [19] > 100 µM | [4] 19.5 µM | [5] 86.1 µM | [20] 46 µM | [6] > 100 µM | [7] 29.5 µM | [8] > 100 µM | [9] > 100 µM | [10] 30.9 µM | [11] > 100 µM | [12] 91.4 µM | [13] > 100 µM | [14] > 100 µM | [15] 41.8 µM | [16] 70.8 µM | [17] 35.1 µM | [18] > 100 µM

CCOC(=O)/C=C1/Oc2ccccc2C1(C)O (configuration not stated)
inactive: [1] > 100 µM | [2] > 100 µM | [3] > 100 µM | [19] > 100 µM | [4] > 100 µM | [5] > 100 µM | [20] > 100 µM | [6] > 100 µM | [7] > 100 µM | [8] 84.5 µM | [9] 68.7 µM | [10] > 100 µM | [11] > 100 µM | [12] > 100 µM | [13] > 100 µM | [14] > 100 µM | [15] > 100 µM | [16] > 100 µM | [17] > 100 µM | [18] > 100 µM

COc1ccc(/C=C2\CC3C4CC=C5C[C@@H](O)CC[C@]5(C)C4CC[C@]3(C)\C2=N\O)cc1OC (some centres not stated)
inactive: [1] 9.62 µM | [2] 5.14 µM | [3] 18.2 µM | [19] 9.02 µM | [4] 6.92 µM | [5] 19.6 µM | [20] 9.71 µM | [6] 6.61 µM | [7] 8.97 µM | [8] 7.24 µM | [9] 7.73 µM | [10] 18.1 µM | [11] 4.13 µM | [12] 23 µM | [13] 4.1 µM | [14] 15.7 µM | [15] 70.6 µM | [16] 43.4 µM | [17] 9.2 µM | [18] 2.65 µM

COc1ccc(/C(Cl)=C(\C=O)c2ccc(OC)cc2)cc1
inactive: [1] > 100 µM | [2] 61.9 µM | [3] > 100 µM | [19] > 100 µM | [4] 80 µM | [5] > 100 µM | [20] > 100 µM | [6] 31.5 µM | [7] 59.4 µM | [8] 37.9 µM | [9] > 100 µM | [10] > 100 µM | [11] 59.8 µM | [13] > 100 µM | [14] > 100 µM | [15] > 100 µM | [16] > 100 µM | [17] 70.8 µM | [18] > 100 µM

COC(=O)/C=C(\C)CCC1SC1(C)C (configuration not stated)
inactive: [1] > 100 µM | [2] > 100 µM | [3] > 100 µM | [19] > 100 µM | [4] > 100 µM | [5] > 100 µM | [20] > 100 µM | [6] > 100 µM | [7] > 100 µM | [8] > 100 µM | [9] > 100 µM | [10] > 100 µM | [11] > 100 µM | [12] > 100 µM | [13] > 100 µM | [14] > 100 µM | [15] > 100 µM | [16] 77.3 µM | [17] > 100 µM | [18] > 100 µM

CC(=O)/N=C1/N(/C=C2\C(=O)Oc3ccccc3C2=O)C(=O)/C(=C/c2ccc(OC(C)=O)cc2)N1C
inactive: [1] > 100 µM | [2] > 100 µM | [3] > 100 µM | [19] > 100 µM | [4] > 100 µM | [5] > 100 µM | [20] > 100 µM | [6] > 100 µM | [7] > 100 µM | [8] > 100 µM | [9] > 100 µM | [10] > 100 µM | [11] > 100 µM | [12] > 100 µM | [13] > 100 µM | [14] > 100 µM | [16] > 100 µM | [17] > 100 µM

CC1(C)CC[C@]2(C)CC[C@]3(C)C(=CC[C@@H]4[C@@]5(C)CCC(=O)C(C)(C)[C@@H]5[C@H](O)C[C@]43C)[C@@H]2C1
inactive: [1] 18.3 µM | [2] 16.3 µM | [3] 17 µM | [19] 17 µM | [4] 17.1 µM | [5] 19 µM | [20] 19.5 µM | [6] 18 µM | [7] 18.9 µM | [8] 23 µM | [9] 16.1 µM | [10] 17.8 µM | [11] 17.6 µM | [12] 17.6 µM | [13] 17.4 µM | [14] 15.1 µM | [15] 15.3 µM | [16] 19.8 µM | [17] 16.9 µM

CC1OC(O)CC(OC(=O)c2ccccc2)C1OC(=O)c1ccccc1 (configuration not stated)
inactive: [1] 23.3 µM | [2] 11.3 µM | [3] 71.6 µM | [19] 21.6 µM | [4] 11.1 µM | [5] 16.7 µM | [20] 16 µM | [6] 49.4 µM | [7] 15.7 µM | [8] 8.18 µM | [9] 18.8 µM | [10] 16.2 µM | [11] 48 µM | [12] 16.1 µM | [13] 16.7 µM | [14] 17.3 µM | [15] 90.4 µM | [16] 13.3 µM | [17] 30.1 µM

CCc1ccc(Nc2cc(=O)[nH]c(=S)n2C)cc1
inactive: [1] > 100 µM | [2] > 100 µM | [3] > 100 µM | [19] > 100 µM | [4] > 100 µM | [5] > 100 µM | [20] > 100 µM | [6] > 100 µM | [7] > 100 µM | [8] > 100 µM | [9] > 100 µM | [10] > 100 µM | [11] > 100 µM | [13] > 100 µM | [14] > 100 µM | [15] > 100 µM | [16] > 100 µM | [17] > 100 µM | [18] > 100 µM
